Among the data in US20140187548A1, “6 SUBSTITUTED IMIDAZOPYRAZINES FOR USE AS MPS-1 AND TKK INHIBITORS IN THE TREATMENT OF HYPERPROLIFERATIVE DISORDERS” (BAYER INTELLECTUAL PROPERTY GMBH, priority 2010, published 2014) are IC50 values, retold here.

Each structure is given as a SMILES string.

This assay deals with T1, human kinase Mps-1 (Homo sapiens, UniProt P33981).
T1 construct: N-terminally GST-tagged human full length recombinant Mps-1 kinase; GST (N); purchased Invitrogen, Karslruhe, Germany PV4071
T1 sequence (P33981 1-857): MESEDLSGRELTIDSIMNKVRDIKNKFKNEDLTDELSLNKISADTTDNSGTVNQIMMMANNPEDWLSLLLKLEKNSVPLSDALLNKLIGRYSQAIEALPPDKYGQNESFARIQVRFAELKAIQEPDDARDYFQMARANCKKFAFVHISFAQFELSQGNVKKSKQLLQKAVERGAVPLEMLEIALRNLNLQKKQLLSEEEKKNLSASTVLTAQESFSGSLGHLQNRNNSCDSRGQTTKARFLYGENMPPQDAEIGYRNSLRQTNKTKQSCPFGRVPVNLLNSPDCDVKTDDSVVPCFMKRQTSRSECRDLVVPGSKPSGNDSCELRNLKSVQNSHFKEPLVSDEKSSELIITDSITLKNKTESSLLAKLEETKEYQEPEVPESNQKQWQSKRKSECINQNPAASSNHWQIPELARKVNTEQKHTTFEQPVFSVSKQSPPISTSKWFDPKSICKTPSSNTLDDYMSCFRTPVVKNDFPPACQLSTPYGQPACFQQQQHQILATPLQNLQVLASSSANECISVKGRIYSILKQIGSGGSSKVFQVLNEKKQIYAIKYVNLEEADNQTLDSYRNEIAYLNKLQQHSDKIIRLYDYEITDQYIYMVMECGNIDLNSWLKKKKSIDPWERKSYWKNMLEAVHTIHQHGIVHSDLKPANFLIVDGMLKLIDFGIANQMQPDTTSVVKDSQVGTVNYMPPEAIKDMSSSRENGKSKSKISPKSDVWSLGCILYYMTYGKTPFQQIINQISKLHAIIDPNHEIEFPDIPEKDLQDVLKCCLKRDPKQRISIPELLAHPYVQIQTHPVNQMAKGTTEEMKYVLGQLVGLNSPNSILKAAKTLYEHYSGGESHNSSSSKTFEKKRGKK
In words: Mps-1 kinase assay (TR-FRET). It is filed as biochemical. The settings on record: N-terminally GST-tagged human full length recombinant Mps-1; 10 μM ATP; 1 μM peptide substrate; 15 min pre-incubation; 60 min at 22° C. Put shortly:
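N-terminally GST-tagged full-length recombinant human Mps-1, about 1 nM final, phosphorylates a biotinylated peptide. Product detected by TR-FRET from Eu-anti-phospho-Ser/Thr antibody to streptavidin-XLent after 1 h at 22° C.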
On the technique in general: In TR-FRET formats the signal depends on donor and acceptor labels being close together.
As usually defined, the IC50 is the midpoint of a concentration-inhibition curve. For `CC(C)CNc1nc(-c2ccc(F)c(F)c2)cn2c(-c3ccc(C(=O)NC4CC4)cc3)cnc12` [Example 1-63, N-cyclopropyl-4-{6-(3,4-difluorophenyl)-8-[(2-methylpropyl)amino]imidazo[1,2-a]pyrazin-3-yl}benzamide], the IC50 came to 7.7 nM.

With `CN(C)c1ccc(-c2cn3c(-c4ccc(C(=O)NC5CC5)c(F)c4)cnc3c(NCC3CCCO3)n2)cc1` (stereo not drawn) [Example 1-117, N-cyclopropyl-4-{6-[4-(dimethylamino)phenyl]-8-[(tetrahydrofuran-2-ylmethyl)amino]imidazo [1,2-a]pyrazin-3-yl}-2-fluorobenzamide], the IC50 amounted to 28.8 nM.

On to `COc1cccc(-c2cn3c(-c4ccc(C(=O)NC5CC5)cc4)cnc3c(NCC(C)C)n2)c1F` [Example 1-13, N-cyclopropyl-4-{6-(2-fluoro-3-methoxyphenyl)-8-[(2-methylpropyl)amino]imidazo[1,2-a]pyrazin-3-yl}benzamide], for which the IC50 turned out to be 7 nM.

As for `O=C(NC1CC1)c1ccc(-c2cnc3c(NCCc4cccs4)nc(-c4ccccc4)cn23)cc1` [Example 2-39, N-cyclopropyl-4-(6-phenyl-8-{[2-(thiophen-2-yl)ethyl]amino}imidazo[1,2-a]pyrazin-3-yl)benzamide], the IC50 was determined as 19.4 nM.

Regarding `O=C(NC1CC1)c1ccc(-c2cnc3c(NCc4ccc(OC(F)(F)F)cc4)nc(-c4ccccc4)cn23)cc1` [Example 2-22, N-cyclopropyl-4-(6-phenyl-8-{[4-(trifluoromethoxy)benzyl]amino}imidazo[1,2-a]pyrazin-3-yl)benzamide], the IC50 is 217 nM.

With `CNC(=O)CNc1nc(-c2ccccc2)cn2c(-c3ccc(C(=O)NC4CC4)cc3)cnc12` [Example 2-49, N-cyclopropyl-4-(8-{[2-(methylamino)-2-oxoethyl]amino}-6-phenylimidazo[1,2-a]pyrazin-3-yl)benzamide], the IC50 amounted to 32.2 nM.

Turning to `CC(C)CNc1nc(-c2ccc(Oc3ccccc3)cc2)cn2c(-c3ccc(C(=O)NC4CC4)cc3)cnc12` [Example 1-47, N-cyclopropyl-4-{8-[(2-methylpropyl)amino]-6-(4-phenoxyphenyl)imidazo[1,2-a]pyrazin-3-yl}benzamide], the IC50 came out at 78.9 nM.

For `O=C(NC1CC1)c1ccc(-c2cnc3c(NCCCN4CCCC4)nc(-c4ccccc4)cn23)cc1` [Example 2-36, N-cyclopropyl-4-(6-phenyl-8-{[3-(pyrrolidin-1-yl)propyl]amino}imidazo[1,2-a]pyrazin-3-yl)benzamide], the half-maximal inhibitory concentration (IC50) came out at 28.4 nM.

As to `CC(C)(O)CNc1nc(-c2ccc(F)cc2)cn2c(-c3ccc(C(=O)NC4CC4)c(F)c3)cnc12` [Example 1-115, N-cyclopropyl-2-fluoro-4-{6-(4-fluorophenyl)-8-[(2-hydroxy-2-methyl-propyl)amino]imidazo [1,2-a]pyrazin-3-yl} benzamide], the IC50 came to 5.4 nM.

For `CN(C)c1ccc(-c2cn3c(-c4ccc(C(=O)NC5CC5)c(Cl)c4)cnc3c(NCC(C)(C)O)n2)cc1` [Example 1-99, 2-chloro-N-cyclopropyl-4-{6-[4-(dimethylamino)phenyl]-8-[(2-hydroxy-2-methylpropyl)amino]imidazo[1,2-a]pyrazin-3-yl}benzamide], the half-inhibitory concentration (IC50) was 31.1 nM.

As for `CC(C)CNc1nc(-c2ccc(N3CCNCC3)cc2)cn2c(-c3ccc(C(=O)NC4CC4)cc3)cnc12` [Example 1-89, N-cyclopropyl-4-{8-[(2-methylpropyl)amino]-6-[4-(piperazin-1-yl)phenyl]imidazo[1,2-a]pyrazin-3-yl}benzamide], the IC50 was determined as 2 nM.

`Cc1cc(-c2cnc3c(NCC(C)C)nc(-c4ccc(F)cc4)cn23)ccc1C(=O)NC1CC1` [Example 10-3, N-cyclopropyl-4-{6-(4-fluorophenyl)-8-[(2-methylpropyl)amino]imidazo[1,2-a]pyrazin-3-yl}-2-methylbenzamide]: the IC50 was 5.1 nM.

With `O=C(NC1CC1)c1ccc(-c2cnc3c(NCCCN4CCCC4=O)nc(-c4ccccc4)cn23)cc1` [Example 2-9, N-cyclopropyl-4-(8-{[3-(2-oxopyrrolidin-1-yl)propyl]amino}-6-phenylimidazo[1,2-a]pyrazin-3-yl)benzamide], the half-inhibitory concentration (IC50) was found to be 4.8 nM.

Regarding `CC(C)CNc1nc(-c2ccccc2F)cn2c(-c3ccc(C(=O)NC4CC4)cc3)cnc12` [Example 1-51, N-cyclopropyl-4-{6-(2-fluorophenyl)-8-[(2-methylpropyl)amino]imidazo[1,2-a]pyrazin-3-yl}benzamide], the IC50 is 3.7 nM.

Turning to `O=C(NC1CC1)c1ccc(-c2cnc3c(NCCN4CCCC4)nc(-c4ccccc4)cn23)cc1` [Example 2-25, N-cyclopropyl-4-(6-phenyl-8-{[2-(pyrrolidin-1-yl)ethyl]amino}imidazo[1,2-a]pyrazin-3-yl)benzamide], the half-maximal inhibitory concentration (IC50) came to 27.4 nM.

In the case of `CN(C)c1ccc(-c2cn3c(-c4ccc(C(=O)NC5CC5)c(Cl)c4)cnc3c(NCc3ccnn3C)n2)cc1` [Example 1-108, 2-chloro-N-cyclopropyl-4-(6-[4-(dimethylamino)phenyl]-8-{[(1-methyl-1H-pyrazol-5-yl)methyl]amino}imidazo [1,2-a]pyrazin-3-yl) benzamide], the IC50 came out at 43.9 nM.

Consider `Cc1cc(-c2cnc3c(NCC4CCOC4)nc(-c4ccc(F)cc4)cn23)ccc1C(=O)NC1CC1` (stereo not drawn) [Example 10-11, N-cyclopropyl-4-{6-(4-fluorophenyl)-8-[(tetrahydrofuran-3-yl-methyl)amino]imidazo [1,2-a]pyrazin-3-yl}-2-methylbenzamide], for which the IC50 was 3.3 nM.

In the case of `CN(C)CCCNc1nc(-c2ccccc2)cn2c(-c3ccc(C(=O)NC4CC4)cc3)cnc12` [Example 2-18, N-cyclopropyl-4-(8-{[3-(dimethylamino)propyl]amino}-6-phenylimidazo[1,2-a]pyrazin-3-yl)benzamide], the IC50 is 26.8 nM.

As to `Cc1ccccc1CNc1nc(-c2ccccc2)cn2c(-c3ccc(C(=O)NC4CC4)cc3)cnc12` [Example 2-5, N-cyclopropyl-4-{8-[(2-methylbenzyl)amino]-6-phenylimidazo[1,2-a]pyrazin-3-yl}benzamide], the IC50 amounted to 6.5 nM.

Consider `CC(C)CNc1nc(-c2ccc(OC(C)C)cc2)cn2c(-c3ccc(C(=O)NC4CC4)cc3)cnc12` [Example 1-58, N-cyclopropyl-4-{8-[(2-methylpropyl)amino]-6-[4-(propan-2-yloxy)phenyl]imidazo[1,2-a]pyrazin-3-yl}benzamide], for which the IC50 was 27 nM.

On to `CC(C)CNc1nc(-c2ccc(F)c(C(=O)NC(C)C)c2)cn2c(-c3ccc(C(=O)NC4CC4)cc3)cnc12` [Example 1-85, 5-{3-[4-(cyclopropyl-carbamoyl)phenyl]-8-[(2-methylpropyl)amino]imidazo[1,2-a]pyrazin-6-yl}-2-fluoro-N-(propan-2-yl)benzamide], for which the IC50 was 2.6 nM.

Consider `CC(C)(O)CNc1nc(-c2cc(F)c(F)cc2F)cn2c(-c3ccc(C(=O)NC4CC4)cc3)cnc12` [Example 1-133, N-cyclopropyl-4-{8-[(2-hydroxy-2-methylpropyl)amino]-6-(2,4,5-trifluoro-phenyl)imidazo[1,2-a]pyrazin-3-yl}benzamide], for which the IC50 turned out to be 6.1 nM.

As for `CC(C)CNc1nc(-c2ccc(N3CCN(C)CC3)cc2)cn2c(-c3ccc(C(=O)NC4CC4)cc3)cnc12` [Example 1-90, N-cyclopropyl-4-{6-[4-(4-methylpiperazin-1-yl)phenyl]-8-[(2-methyl-propyl)amino]imidazo [1,2-a]pyrazin-3-yl} benzamide], the IC50 is 1.6 nM.

Regarding `CCC(C)c1cn2c(-c3ccc(C(=O)NC4CC4)cc3)cnc2c(NCC(C)C)n1` (stereo not drawn) [Example 11-1, 4-{6-(butan-2-yl)-8-[(2-methylpropyl)amino]imidazo[1,2-a]pyrazin-3-yl}-N-cyclopropylbenzamide], the IC50 worked out at 5.4 nM.

As for `O=C(NC1CC1)c1ccc(-c2cnc3c(NCC4CCCO4)nc(-c4ccccc4CO)cn23)cc1F` (stereo not drawn) [Example 1-118, N-cyclopropyl-2-fluoro-4-{6-[2-(hydroxymethyl)phenyl]-8-[(tetrahydro-furan-2-ylmethyl)amino]imidazo[1,2-a]pyrazin-3-yl}benzamide], the IC50 stood at 20.1 nM.

For `CC(C)CNc1nc(-c2ccc(C3CC3)cc2)cn2c(-c3ccc(C(=O)NC4CC4)cc3)cnc12` [Example 7-1, N-cyclopropyl-4-[6-(4-cyclopropylphenyl)-8-(isobutylamino)imidazo[1,2-a]pyrazin-3-yl]benzamide], the IC50 was found to be 31.8 nM.

For `CC(C)CNc1nc(-c2cccc(S(=O)(=O)N3CCOCC3)c2)cn2c(-c3ccc(C(=O)NC4CC4)cc3)cnc12` [Example 1-130, N-cyclopropyl-4-{8-(isobutylamino)-6-[3-(morpholin-4-ylsulfonyl)phenyl]imidazo[1,2-a]pyrazin-3-yl}benzamide], the IC50 came to 6.7 nM.
